Laboratory results taken from US9732311B2, “Alcoholic compositions having a lowered risk of acetaldehydemia” (Deuteria Beverages, LLC, priority 2009, dated 2017).
Where two headings read alike, the source gives them in different places.

Columns and labels:
sheep liver ALDH = conditions: literature (Hart and Dickinson 1978); cited from earlier work
[1] = oral
Experimental: The subject was a person, 154 kg, with no known abnormalities of ethanol metabolism. Experiments were conducted after an overnight fast. 1,1-Dideuterioethanol, 99 atom % D (CDN Isotopes; Quebec, Canada) (70 mL) was diluted to 500 mL with orange juice, and the resulting beverage was consumed by the subject over the course of five minutes. The mouth and palate were rinsed with orange juice, and data points were then obtained, in triplicate, every 10 minutes with a commercial breath analyzer (AlcoHAWK™ Pro, Q3 Innovations Inc., Independence, Iowa, U.S.A.) The control experiment employed 175 mL of commercial vodka (80 proof; 40% ethanol) but was otherwise identical.
Each data point in the FIGURE is the average of the three measurements taken at each time point.

horse liver ALDH = conditions: literature (Feldman and Weiner 1972); cited from earlier work

SMILES: [2H]C(C)=O [acetaldehyde-1-d]
- deuterium isotope effect (sheep liver ALDH): no isotope effect

SMILES: [2H]C([2H])(C)O [deuterated ethanol, 1,1-Dideuterioethanol]
- absorption relative to ethanol having a natural isotopic abundance ([1]; human subject, FIG. 1): substantially retarded
- areas under the curves of blood level vs time, deuterated vs ordinary ethanol ([1]; human subject, FIG. 1): substantially equivalent
- rate of clearance relative to ethanol having a natural isotopic abundance ([1]; human subject, FIG. 1): reduced
- time after ingestion at which peak blood concentrations of ethanol are reached ([1]; human subject, after overnight fast, 70 mL diluted to 500 mL with orange juice): 1 to 2 h
- reduction of peak blood concentration ([1]; human subject, relative to non-deuterated ethanol): 15-20%

SMILES: CCO [ethanol, reference compound]
- time after ingestion at which peak blood concentrations of ethanol are reached ([1]; human, ordinary ethanol (normally)): 0.333 to 0.5 h

SMILES: [2H]C(=O)CC [propionaldehyde-1-d]
- deuterium isotope effect (horse liver ALDH): no isotope effect
